SMILES strings stand for the structures.

The target of one test is T1, Mouse brain MAGL (Mus musculus, UniProt O35678).
T1 construct: from tissue; host or cells: brain of wild-type C57Bl/6J mice dosed by oral gavage
T1 sequence (O35678 1-303): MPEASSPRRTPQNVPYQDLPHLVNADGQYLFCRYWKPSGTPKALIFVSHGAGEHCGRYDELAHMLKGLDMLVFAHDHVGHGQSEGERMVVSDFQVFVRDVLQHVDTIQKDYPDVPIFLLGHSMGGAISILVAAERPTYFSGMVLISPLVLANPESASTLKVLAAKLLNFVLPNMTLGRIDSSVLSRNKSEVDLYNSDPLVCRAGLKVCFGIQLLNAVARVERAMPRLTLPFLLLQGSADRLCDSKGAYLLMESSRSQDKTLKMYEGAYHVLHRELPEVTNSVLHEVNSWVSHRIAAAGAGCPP
As to the kind of experiment: Mouse brain proteomes from inhibitor treated mice (oral gavage, ABPP analysis). The test is classed as in vivo. The note with it: p.o., sacrificed 4 h following administration. The protocol:
After 30 min, FP—Rh (1.0 μL, 50 μM in DMSO) was added and the mixture was incubated for another 30 min at 37° C. Reactions were quenched with SDS loading buffer (50 μL-4×) and run on SDS-PAGE. Following gel imaging, serine hydrolase activity was determined by measuring fluorescent intensity of gel bands corresponding to MAGL, ABHD6 and FAAH using ImageJ 1.43 u software.
Inhibitors were administered to wild-type C57Bl/6J by oral gavage in a vehicle of polyethylene glycol. Each animal was sacrificed 4 h following administration and brain proteomes were prepared and analyzed according to previously established methods (See Niphakis, M. J., et al. (2011) ACS Chem. Neurosci. and Long, J. Z., et al. Nat. Chem. Biol. 5:37-44).

Test [1] has as its target T2, MAGL (Mus musculus, UniProt O35678).
T2 sequence (O35678 1-303): T1 sequence (O35678 1-303)
As to the kind of experiment: In vitro competitive activity-based protein profiling (Table 2, % inhibition at 1 μM). In kind it is biochemical. Particulars: read-out: % Inhibition at 1 μM MAGL. How it is done:
After 30 min, FP—Rh (1.0 μL, 50 μM in DMSO) was added and the mixture was incubated for another 30 min at 37° C. Reactions were quenched with SDS loading buffer (50 μL-4×) and run on SDS-PAGE.
Cell lysates were diluted with mock proteomes for use in competitive ABPP experiments.

Test [2] has as its target T3, ABHD6 (Mus musculus, UniProt Q8R2Y0).
T3 sequence (Q8R2Y0 1-336): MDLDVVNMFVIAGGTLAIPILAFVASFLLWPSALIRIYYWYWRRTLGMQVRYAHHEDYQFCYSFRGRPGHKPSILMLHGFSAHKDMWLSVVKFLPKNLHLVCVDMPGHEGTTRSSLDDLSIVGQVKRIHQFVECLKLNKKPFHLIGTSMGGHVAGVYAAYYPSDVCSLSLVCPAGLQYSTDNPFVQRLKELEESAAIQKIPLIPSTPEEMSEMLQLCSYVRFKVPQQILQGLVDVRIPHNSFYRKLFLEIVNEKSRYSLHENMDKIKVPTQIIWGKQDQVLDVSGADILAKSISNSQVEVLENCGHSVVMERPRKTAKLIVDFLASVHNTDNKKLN
Described as above. The test is classed as biochemical. The note with it: read-out: % Inhibition at 1 μM ABHD6.

Test [3] has as its target T4, FAAH (Mus musculus, UniProt O08914).
T4 sequence (O08914 1-579): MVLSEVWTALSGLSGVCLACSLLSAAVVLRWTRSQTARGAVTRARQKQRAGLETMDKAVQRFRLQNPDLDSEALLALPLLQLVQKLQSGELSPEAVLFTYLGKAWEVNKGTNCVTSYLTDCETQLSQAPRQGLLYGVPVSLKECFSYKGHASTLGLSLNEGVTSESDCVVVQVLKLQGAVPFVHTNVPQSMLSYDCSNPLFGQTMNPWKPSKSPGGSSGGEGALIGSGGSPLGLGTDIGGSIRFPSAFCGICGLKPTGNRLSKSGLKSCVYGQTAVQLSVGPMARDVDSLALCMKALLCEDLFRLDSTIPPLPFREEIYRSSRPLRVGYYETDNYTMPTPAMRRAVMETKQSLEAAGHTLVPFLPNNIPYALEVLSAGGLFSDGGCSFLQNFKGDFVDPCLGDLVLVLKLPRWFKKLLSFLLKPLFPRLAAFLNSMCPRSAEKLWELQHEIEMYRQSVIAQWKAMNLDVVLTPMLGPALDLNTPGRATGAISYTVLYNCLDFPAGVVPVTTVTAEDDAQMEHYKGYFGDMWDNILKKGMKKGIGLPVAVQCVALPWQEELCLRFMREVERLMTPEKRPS
Described as above. The test is classed as biochemical. The note with it: read-out: % Inhibition at 1 μM FAAH.

Test [4] addresses T2, MAGL. As to the kind of experiment: biochemical. Particulars: mouse; in vitro competitive ABPP; read-out: Mouse (IC50 value, nM) MAGL.
Test [5] deals with T4, FAAH. As to the kind of experiment: biochemical. The note with it: in vitro competitive ABPP.
Test [6] deals with T3, ABHD6. As to the kind of experiment: biochemical. The note with it: in vitro competitive ABPP.

`Cc1cc(CN2CC3CN(C(=O)OC(C(F)(F)F)C(F)(F)F)CC3C2)n(C2CCCCC2)n1` (centres unmarked) [Example 58, 1,1,1,3,3,3-Hexafluoropropan-2-yl 5-[(1-cyclohexyl-3-methyl-1H-pyrazol-5-yl)methyl]-octahydropyrrolo[3,4-c]pyrrole-2-carboxylate]: on Mouse brain MAGL, the inhibition (as a rule, how much of the control response was suppressed) at 5 mg/kg is ≥ 75%. In addition, the inhibition at 1 µM on MAGL [1] was > 75%; on ABHD6 [2] it was 25 to 75%; at FAAH [3], < 25%. The half-maximal inhibitory concentration (IC50) (commonly the concentration that gives 50% inhibition) at MAGL [4] was < 100 nM; at FAAH [5], > 10000 nM; at ABHD6 [6] it was 1000 to 10000 nM.

Consider `O=C(OC(C(F)(F)F)C(F)(F)F)N1CC2CN(Cc3cc(CN4CCOCC4)ccc3OC(F)(F)F)CC2C1` (centres unmarked) [Example 188, 1,1,1,3,3,3-hexafluoropropan-2-yl 5-(5-(morpholinomethyl)-2-(trifluoromethoxy)benzyl)hexahydropyrrolo[3,4-c]pyrrole-2(1H)-carboxylate], for which the inhibition at 5 mg/kg at Mouse brain MAGL is ≥ 75%. The results for the inhibition at 1 µM at MAGL [1], on ABHD6 [2] and at FAAH [3] were > 75%, < 25% and < 25%, respectively. For the same compound, the concentration for half-maximal inhibition (IC50) on MAGL [4] is < 100 nM; at FAAH [5] it was 1000 to 10000 nM; on ABHD6 [6], 1000 to 10000 nM.

`O=C(OC(C(F)(F)F)C(F)(F)F)N1CC2CN(Cc3cccc(N4CCC5(CCOC5)C4)c3C(F)(F)F)CC2C1` (centres unmarked) [Example 128, 1,1,1,3,3,3-hexafluoropropan-2-yl 5-[(3-[2-oxa-7-azaspiro[4.4]nonan-7-yl]-2-(trifluoromethyl)phenyl)methyl]-octahydropyrrolo[3,4-c]pyrrole-2-carboxylate]: at Mouse brain MAGL, the inhibition at 5 mg/kg is ≤ 25%. The inhibition at 1 µM at MAGL [1] was > 75%; on ABHD6 [2], < 25%; at FAAH [3], < 25%. Also, the values for the IC50 at MAGL [4], on FAAH [5] and on ABHD6 [6] were < 100 nM, 1000 to 10000 nM and 1000 to 10000 nM, respectively.

Consider `O=C(OC(C(F)(F)F)C(F)(F)F)N1CC2CN(Cc3ccc(Cl)cc3N3CCOC4CCCC43)CC2C1` (centres unmarked) [Example 4, 1,1,1,3,3,3-Hexafluoropropan-2-yl 5-(4-chloro-2-(hexahydrocyclopenta[b][1,4]oxazin-4(4aH)-yl)benzyl)hexahydropyrrolo[3,4-c]pyrrole-2(1H)-carboxylate], for which the inhibition at 5 mg/kg at Mouse brain MAGL is ≤ 25%. Further, the values for the inhibition at 1 µM at MAGL [1], at ABHD6 [2] and at FAAH [3] were > 75%, < 25% and < 25%, respectively. Moreover, the half-inhibitory concentration (IC50) at MAGL [4] was in the range of 100 to 1000 nM; at FAAH [5], 1000 to 10000 nM; at ABHD6 [6], 1000 to 10000 nM.

As for `Cn1cc(CN2CC3CN(C(=O)OC(C(F)(F)F)C(F)(F)F)CC3C2)c(-c2ccccc2Cl)n1` (centres unmarked) [Example 51, 1,1,1,3,3,3-Hexafluoropropan-2-yl 5-[[3-(2-chlorophenyl)-1-methyl-1H-pyrazol-4-yl]methyl]-octahydropyrrolo[3,4-c]pyrrole-2-carboxylate], at Mouse brain MAGL, the inhibition at 5 mg/kg was ≤ 25%. Besides, the inhibition at 1 µM is > 75% on MAGL [1], 25 to 75% on ABHD6 [2] and < 25% on FAAH [3]. Moreover, the IC50 on MAGL [4] is < 100 nM; on FAAH [5] it was > 10000 nM; at ABHD6 [6], 1000 to 10000 nM.

Turning to `CCn1cc(CN2CC3CN(C(=O)OC(C(F)(F)F)C(F)(F)F)CC3C2)c(-c2cccc(N3CCCCC3)c2)n1` (centres unmarked) [Example 132, 1,1,1,3,3,3-hexafluoropropan-2-yl 5-([1-ethyl-3-[3-(piperidin-1-yl)phenyl]-1H-pyrazol-4-yl]methyl)-octahydropyrrolo[3,4-c]pyrrole-2-carboxylate], at Mouse brain MAGL, the inhibition at 5 mg/kg was ≤ 25%. Moreover, the inhibition at 1 µM at MAGL [1] was > 75%; on ABHD6 [2] it was < 25%; on FAAH [3], < 25%. The IC50 on MAGL [4] was < 100 nM; on FAAH [5] it was 1000 to 10000 nM; on ABHD6 [6], 1000 to 10000 nM.

Consider `CC(=O)N1CCN(c2cc(C(C)C)ccc2CN2CC3CN(C(=O)OC(C(F)(F)F)C(F)(F)F)CC3C2)CC1` (centres unmarked) [Example 24, 1,1,1,3,3,3-Hexafluoropropan-2-yl 5-[[2-(4-acetylpiperazin-1-yl)-4-(propan-2-yl)phenyl]methyl]-octahydropyrrolo[3,4-c]pyrrole-2-carboxylate], for which the inhibition at 5 mg/kg at Mouse brain MAGL was ≤ 25%. Further, the inhibition at 1 µM on MAGL [1] was > 75%; at ABHD6 [2], 25 to 75%; on FAAH [3], < 25%. In addition, the figures for the half-inhibitory concentration (IC50) on MAGL [4], on FAAH [5] and at ABHD6 [6] were < 100 nM, > 10000 nM and 1000 to 10000 nM, respectively.

For the compound `Cc1c(CN2CC3CN(C(=O)OC(C(F)(F)F)C(F)(F)F)CC3C2)cccc1N1C2CCC1COC2` (centres unmarked) [Example 127, 1,1,1,3,3,3-hexafluoropropan-2-yl 5-[(2-methyl-3-[3-oxa-8-azabicyclo[3.2.1]octan-8-yl]phenyl)methyl]-octahydropyrrolo[3,4-c]pyrrole-2-carboxylate], the inhibition at 5 mg/kg against Mouse brain MAGL lay within 25 to 75%. The inhibition at 1 µM at MAGL [1] is > 75%; on ABHD6 [2], 25 to 75%; on FAAH [3], < 25%. Moreover, the IC50 on MAGL [4] was < 100 nM; on FAAH [5], 1000 to 10000 nM; on ABHD6 [6], 1000 to 10000 nM.

Turning to `O=C(OC(C(F)(F)F)C(F)(F)F)N1CC2CN(Cc3cccc(-c4ccccc4)c3)CC2C1` (centres unmarked) [Example 13, 1,1,1,3,3,3-Hexafluoropropan-2-yl 5-[(3-phenylphenyl)methyl]-octahydropyrrolo[3,4-c]pyrrole-2-carboxylate], the values for the inhibition at 1 µM at MAGL [1], at ABHD6 [2] and on FAAH [3] were > 75%, < 25% and 25 to 75%, respectively. Further, the half-maximal inhibitory concentration (IC50) at MAGL [4] is < 100 nM; on FAAH [5] it was 100 to 1000 nM; on ABHD6 [6] it was 1000 to 10000 nM.

`O=C(ON1C(=O)CCC1=O)N1CC2CN(Cc3cccc(-c4ccccc4)c3)CC2C1` (centres unmarked) [Example 88, 2,5-Dioxopyrrolidin-1-yl 5-[(3-phenylphenyl)methyl]-octahydropyrrolo[3,4-c]pyrrole-2-carboxylate]: the inhibition at 1 µM on MAGL [1] is > 75%; at ABHD6 [2], 25 to 75%; on FAAH [3], > 75%. In addition, the half-inhibitory concentration (IC50) at MAGL [4] was < 100 nM; on FAAH [5], 100 to 1000 nM; at ABHD6 [6], 1000 to 10000 nM.

As for `O=C(OC(C(F)(F)F)C(F)(F)F)N1CC2CN(Cc3cccc(N4CCC5(CCOC5)C4)c3Cl)CC2C1` (centres unmarked) [Example 48, 1,1,1,3,3,3-Hexafluoropropan-2-yl 5-[(2-chloro-3-[2-oxa-7-azaspiro[4.4]nonan-7-yl]phenyl)methyl]-octahydropyrrolo[3,4-c]pyrrole-2-carboxylate], the inhibition at 1 µM on MAGL [1] is > 75%; on ABHD6 [2], < 25%; on FAAH [3] it was 25 to 75%. For the same compound, the IC50 on MAGL [4] was < 100 nM; on FAAH [5], 1000 to 10000 nM; at ABHD6 [6] it was 1000 to 10000 nM.

Source of the values: patent US9828379B2 (priority 2013, dated 2017).
